Reference: PubChem BioAssay (NCI)
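Tested at 5 concentrations; 48 h exposure; 96-well plates; endpoints linearly interpolated, else capped at highest concentration. The concentration for 50% growth inhibition is given as GI50. At the TGI there is no net growth.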

How the values were obtained:
Test in all cases: DTP human tumour cell line panel, 48 h
[1] = tested on: MALME-3M melanoma
[2] = tested on: NCI-H226 lung
[3] = tested on: IGROV1 ovarian
[4] = tested on: NCI-H522 lung
[5] = tested on: LOX IMVI melanoma
[6] = tested on: RXF 393 renal
[7] = tested on: SK-MEL-5 melanoma
[8] = tested on: EKVX NSCLC
[9] = tested on: SNB-19 CNS
[10] = tested on: K-562 leukemia

SMILES	GI50 [1] [µM]	TGI [1] [µM]	GI50 [2] [µM]	TGI [2] [µM]	GI50 [3] [µM]	TGI [3] [µM]	GI50 [4] [µM]	TGI [4] [µM]	GI50 [5] [µM]	TGI [5] [µM]	GI50 [6] [µM]	TGI [6] [µM]	GI50 [7] [µM]	TGI [7] [µM]	GI50 [8] [µM]	TGI [8] [µM]	GI50 [9] [µM]	TGI [9] [µM]	GI50 [10] [µM]	TGI [10] [µM]
CC[C@@]1(OC(=O)CN)C(=O)OCc2c1cc1n(c2=O)Cc2cc3cc(N)ccc3nc2-1	0.195	2.52	< 0.0152	0.388	0.0974	1.39	0.0139	0.34	< 0.01	0.103	0.044	0.371	0.0181	0.141	0.465	> 100	< 0.01	> 100	–	–
Cc1nn(-c2ccccc2)c2c1C1C(=C(c3ccc(Cl)cc3)N2)C(=O)Nc2ccccc21 (stereo not given)	2.68	21.2	7.34	36	3.82	60.2	1.78	3.86	3.54	12	2.19	6.7	1.88	4.31	–	–	5.28	> 100	3.33	46.7
Nc1ncnc2occ(-c3ccc(NC(=O)Nc4cc(C(F)(F)F)cc(C(F)(F)F)c4)cc3)c12	4.09	9.27	0.584	4.53	3.05	9.94	2.55	5.67	3.27	6.83	1.24	4.51	3.52	6.82	3.16	8.07	4.1	9.54	0.925	9.21
COc1cc2oc3ccccc3c(=O)c2cc1CSc1ccccc1N	–	> 79.5	–	> 100	–	> 100	–	41.1	–	> 100	–	> 45.5	–	> 74	–	> 100	–	> 100	–	> 100
N#CC1c2ccccc2-c2ccccc2N1C(=O)c1ccccc1 (stereo not given)	1.22	54.2	3.11	> 100	2.66	7.01	0.223	1.48	2.81	> 94.3	0.913	13.2	1.55	4.84	7.2	> 100	4.12	> 100	1.04	–
CC1OC(=O)N(CCCC=C2SCCCS2)C1=O (stereo not given)	–	> 100	–	> 100	–	> 100	–	> 100	–	> 100	–	> 100	–	–	–	> 100	–	> 100	–	> 100
CC1(C)N=C(N)N=C(N)N1c1ccc(OCC(=O)Nc2cccc(S(=O)(=O)F)c2)c(Cl)c1	–	> 19.9	–	77.2	–	> 100	–	> 100	–	> 100	–	> 100	–	> 91.9	–	–	–	> 100	–	> 100
CC(C)c1ccc(/C=C(\NC(=O)c2ccccc2)c2nc3ccccc3[nH]2)cc1	–	> 100	–	> 100	–	> 100	–	89.5	–	> 100	–	> 100	–	48.7	–	90	–	> 100	–	> 100
COc1ccc2c(c1O)[C@@]13C=C(O)C(=O)C=C1[C@@H](C2)N(C)CC3	–	> 100	–	> 100	–	> 100	–	> 100	–	> 100	–	> 100	–	> 100	–	> 100	–	> 100	–	> 100
CC1=C(C#N)C(N)=C2C(C)=C(C#N)C(N)=C12	–	> 100	–	> 100	–	> 100	–	> 100	–	> 100	–	> 100	–	> 100	–	> 100	–	> 100	–	> 100
Cc1cc(N(CCC#N)S(=O)(=O)c2ccccc2)ccc1C=O	–	> 100	–	> 100	–	> 100	–	> 100	–	> 100	–	> 100	–	> 100	–	> 100	–	> 100	–	> 100
COc1ccc2nc3ccc(OC)cc3c(SCCCN)c2c1	1.6	10.5	19.2	65.7	8.46	27.2	1.51	3.09	2.22	5.26	2.42	9.85	7.82	25.7	15.9	35.6	14.4	36.7	1.67	3.89
CCOP(=O)(OCC)/C(C#N)=C\c1cccc2ccccc12	–	> 100	–	> 73.8	–	> 100	–	> 100	–	> 59.4	–	> 100	–	> 100	–	> 100	–	> 100	–	> 100
COc1ccccc1C(=O)c1cnc(NC2CCN(S(C)(=O)=O)CC2)nc1N	> 16.4	> 25	4.62	> 23.1	8.05	> 25	> 25	> 25	6.25	> 25	4.4	10.5	4.84	> 25	–	–	4.71	> 25	> 25	> 25
CCCC/C(=N\N=C(N)N)c1ccc(F)cc1	4.13	18.5	2.78	13.3	5.06	20.9	3.79	16.5	1.33	13.5	2.04	5.81	1.48	4.27	4.5	25.5	2.64	13.8	0.469	11.2
COC(=O)C(CC=O)C(=O)C(=O)Nc1cccc(C(F)(F)F)c1 (stereo not given)	–	> 100	–	> 100	–	> 100	–	> 100	–	> 100	–	> 100	–	> 100	–	> 100	–	> 100	–	> 100
COc1ccc2cccc(C(=N)c3ccc(C)c4c3CCC4)c2c1	–	18.1	–	26.9	–	19.2	–	10.1	–	25.5	–	26.3	–	14.8	–	30.1	–	23.3	–	10.8

SMILES	GI50 [1] [µM]	TGI [1] [µM]	GI50 [2] [µM]	TGI [2] [µM]	GI50 [3] [µM]	TGI [3] [µM]	GI50 [4] [µM]	TGI [4] [µM]	GI50 [5] [µM]	TGI [5] [µM]	GI50 [6] [µM]	TGI [6] [µM]	GI50 [7] [µM]	TGI [7] [µM]	GI50 [8] [µM]	TGI [8] [µM]	GI50 [9] [µM]	TGI [9] [µM]	GI50 [10] [µM]	TGI [10] [µM]
COc1ccc(S(=O)(=O)N/N=C/C(=O)O)cc1	–	> 1250	–	> 1220	–	1060	–	644	–	733	–	1150	–	894	–	> 1250	–	> 1250	–	> 1170
COc1cc2c3c(c1OC)-c1ccccc1C(C(OC(C)=O)c1ccccc1)C3N(C)CC2 (stereo not given)	–	> 100	–	> 100	–	> 100	–	> 100	–	> 100	–	> 100	–	49.6	–	> 100	–	> 100	–	–
COC(=O)[C@H](Cc1ccccc1)NC(=O)c1csc([C@@H](C[C@H](C(C)C)N(C)C(=O)[C@@H](NC(=O)[C@H]2CCCCN2C)C2CC2)OC(C)=O)n1	2.16	> 25	2.59	> 25	0.0452	> 25	0.00654	0.3	0.0403	> 25	0.0351	> 25	0.0521	3.37	0.119	> 25	–	> 25	0.0118	> 25
C/C(=C(/c1ccc(O)cc1)c1ccc(OCCN2CCCC2)cc1)c1ccccc1	1.7	3.41	11.3	29.8	6.8	27	2.1	5.09	1.72	3.29	2	5.05	1.72	3.1	2.46	11.5	2.95	8.1	1.81	4.77
CCN(CC)CCC(=O)Nc1ccc(Cn2nnc3c2C(=O)c2nnn(Cc4ccc(NC(=O)CCN(CC)CC)cc4)c2C3=O)cc1	0.137	0.294	1.51	3.46	0.411	1.37	0.18	0.423	0.232	0.703	3.6	15.2	0.485	1.25	1.54	3.05	0.186	0.373	0.669	> 37.9
CC(C)(C)n1cc(-c2ccnc(NCCNS(=O)(=O)c3ccc(Br)cc3)c2)c(-c2cccc(O)c2)n1	1.67	3.34	2.07	5.32	1.95	4.39	1.79	4.04	1.75	3.15	1.49	3.23	1.36	2.67	2.27	6.88	2.29	5.67	0.573	2.85
CC1CCC(O)C(C(O)CC2CC(=O)N(C)C(=O)C2)C1 (stereo not given)	–	> 100	–	> 100	–	> 100	–	> 100	–	> 100	–	> 100	–	–	–	> 100	–	> 100	–	> 100
O=C(OCc1ccccc1CN1CCOCC1)c1ccc(Br)cc1	–	60.4	–	> 100	–	> 100	–	> 100	–	> 100	–	> 100	–	41.9	–	> 100	–	> 100	–	–
Brc1ccc2c(c1)C1(c3cc(Br)ccc3-2)c2cc(Br)ccc2-c2ccc(Br)cc21	–	> 100	–	> 100	–	> 100	–	> 100	–	> 100	–	> 100	–	–	–	> 100	–	> 100	–	> 100
O=C1OCC(C(=O)c2cccc(O)c2)C1=O (stereo not given)	–	> 100	–	> 100	–	> 100	–	> 100	–	> 100	–	> 100	–	> 100	–	> 100	–	> 100	–	–
N#Cc1c2c(c(N=[N+]=[N-])n3c1nc1ccccc13)CCCC2	–	5.96	–	3.35	–	6.56	–	–	–	3.52	–	3.19	–	32.3	–	30.9	–	7.84	–	8.21
COc1cc[nH]c1/C=C1\C(=O)Nc2ccc(F)c(C#CC3(O)CCOCC3)c21	1.22	5.81	0.498	2.2	0.86	> 7.18	1.08	4.53	0.537	1.77	0.305	1.01	0.497	1.19	–	–	1.02	> 19.5	1.36	> 25
O=C1OC(c2ccc(O)cc2)(c2ccc(O)cc2)c2cccc3cccc1c23	20	43.4	17.6	44.7	17.6	42.7	14	33.5	15.2	34.7	14.6	29.9	16.1	31.3	–	–	16.8	34.5	15.7	61.3
CCOC(=O)c1[nH]c2c(c1C)-c1[nH]c(=O)c(S(=O)(=O)c3ccccc3)cc1SC2	36.4	> 100	64.4	> 100	21.3	> 100	28.7	> 100	–	–	28.4	> 100	37.4	> 100	38.8	> 100	81.1	> 100	23.2	> 100
O=C(N[C@@H]1CCCc2ccccc21)[C@H](CCC(=O)N1CCN(C2CCCCC2)CC1)N1C(=O)[C@@H](N2C(=O)OC[C@@H]2c2ccccc2)[C@H]1/C=C/c1ccccc1	1.63	3.15	4.29	18.4	2.44	41.3	1.76	4.11	1.68	3.41	1.71	3.34	1.37	2.71	2.52	> 100	3.66	25.2	–	–
Oc1cccc(-c2nc3ccccc3s2)c1	–	31.1	–	73	–	63.8	–	51	–	77	–	> 100	–	–	–	42.7	–	> 100	–	> 100
